Source: patent publication US11752155B2, “Treatment of autism spectrum disorders, obsessive-compulsive disorder and anxiety disorders” (Rugen Holdings (Cayman) Limited, priority 2016, dated 2023)
Where “and” joins values, the source holds several entries; their conditions need not be identical. Equal entries are not always repeated. Structures can show the parent of a compound that is named as a salt. Where two headings read alike, the source gives them in different places.

Columns and labels:
[1] = target: human NR1/NR2B (Homo sapiens (Human), UniProt Q05586+Q13224); assay: NR2B antagonist activity: calcium influx (Fluo-4) assay in HEK293 cells; type: cell-based; conditions: read-out: NR2B IC50
Sequence of human NR1/NR2B (Q13224 27-1484, other chains not shown): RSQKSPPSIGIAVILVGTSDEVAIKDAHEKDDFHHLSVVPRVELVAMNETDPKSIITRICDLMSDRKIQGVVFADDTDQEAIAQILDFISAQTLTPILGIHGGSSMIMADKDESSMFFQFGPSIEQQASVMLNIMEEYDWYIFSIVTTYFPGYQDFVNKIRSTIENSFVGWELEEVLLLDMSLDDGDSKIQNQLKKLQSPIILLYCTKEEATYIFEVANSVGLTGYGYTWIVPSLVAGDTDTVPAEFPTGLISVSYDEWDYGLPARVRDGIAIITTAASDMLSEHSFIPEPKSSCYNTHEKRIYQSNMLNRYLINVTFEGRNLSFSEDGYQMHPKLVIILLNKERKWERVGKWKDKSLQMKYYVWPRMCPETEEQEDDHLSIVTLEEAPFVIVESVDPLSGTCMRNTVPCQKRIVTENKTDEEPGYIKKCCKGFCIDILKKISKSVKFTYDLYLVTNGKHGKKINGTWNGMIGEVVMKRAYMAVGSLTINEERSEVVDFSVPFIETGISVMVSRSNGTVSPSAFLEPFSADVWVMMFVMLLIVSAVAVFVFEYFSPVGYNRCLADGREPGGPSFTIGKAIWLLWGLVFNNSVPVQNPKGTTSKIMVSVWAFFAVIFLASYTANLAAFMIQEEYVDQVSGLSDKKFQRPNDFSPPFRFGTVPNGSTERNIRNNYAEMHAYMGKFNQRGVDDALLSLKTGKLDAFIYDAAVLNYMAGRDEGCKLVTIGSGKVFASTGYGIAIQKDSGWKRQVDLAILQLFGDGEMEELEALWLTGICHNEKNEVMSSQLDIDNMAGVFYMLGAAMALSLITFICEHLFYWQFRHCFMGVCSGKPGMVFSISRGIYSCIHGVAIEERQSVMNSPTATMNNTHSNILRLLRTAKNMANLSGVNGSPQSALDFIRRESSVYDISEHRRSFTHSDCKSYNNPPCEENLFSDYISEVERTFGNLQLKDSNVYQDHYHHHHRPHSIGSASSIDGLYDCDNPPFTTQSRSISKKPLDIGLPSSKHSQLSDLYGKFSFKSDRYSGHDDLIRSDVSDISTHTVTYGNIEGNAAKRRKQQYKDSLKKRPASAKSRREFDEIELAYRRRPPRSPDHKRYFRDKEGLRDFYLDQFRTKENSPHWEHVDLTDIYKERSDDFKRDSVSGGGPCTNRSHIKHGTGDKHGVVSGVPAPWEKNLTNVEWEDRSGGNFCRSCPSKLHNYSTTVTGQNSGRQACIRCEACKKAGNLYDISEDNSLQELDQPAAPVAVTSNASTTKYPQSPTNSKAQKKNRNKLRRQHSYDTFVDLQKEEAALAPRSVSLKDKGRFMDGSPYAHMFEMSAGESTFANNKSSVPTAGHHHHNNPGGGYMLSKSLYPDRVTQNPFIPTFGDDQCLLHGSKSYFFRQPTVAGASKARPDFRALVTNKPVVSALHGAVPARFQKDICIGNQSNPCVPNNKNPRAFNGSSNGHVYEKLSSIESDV
Experimental: Activation of the NR2A or NR2B subtype of NMDA receptor with glutamate as an agonist and glycine co-agonist on these cells results in calcium influx, which can be monitored with fluorescent indicator Fluo-4.
For experiments, the cells were seeded onto poly-D-lysine-coated 96-well black plates with clear bottom (Corning) at a density of ˜50,000 cells/well. After overnight culture, the growth medium was removed from the wells and the cells were incubated at 37° C. for 60 minutes in Hanks buffer containing 4 μM fluo-4-AM (Invitrogen) and 0.1% bovine serum albumin (BSA). After dye-loading, the cells were washed three times with Hanks buffer and incubated for 10 minutes at room temperature with various concentrations of test compounds prepared in Hanks buffer with 0.1% BSA. The cell plates were placed onto an FDSS Cell fluorescence reader (Hamamatsu). After 20 seconds of reading background fluorescence, agonist glutamate at final 100 µM and co-agonist glycine at final 50 μM were added to the cells to activate the receptor, and the resulting fluorescence changes were recorded and quantified. Based on the changes in fluorescence intensity, the pharmacological effect of test compounds was analyzed and the IC50 values derived from a non-linear least squares fitting of the concentration-dependent response to a standard logistic equation using Prism (Graphpad Software, Inc.): Amplitude=Max Amplitude/(1+(IC50/[antagonist])^n).

[2] = target: CYP2D6 (Homo sapiens (Human), UniProt P10635); assay: CYP P450 enzyme inhibition in pooled human liver microsomes (dextromethorphan probe); type: in vitro ADME; conditions: for inhibition at 10 min, 10 µM: human, pooled human liver microsomes, pH 7.4, probe dextromethorphan, 5 μM, read-out: CYP2D6 Inhibiton at 10 μM; for IC50: Table 1.4B
Sequence of CYP2D6 (P10635 whole entry): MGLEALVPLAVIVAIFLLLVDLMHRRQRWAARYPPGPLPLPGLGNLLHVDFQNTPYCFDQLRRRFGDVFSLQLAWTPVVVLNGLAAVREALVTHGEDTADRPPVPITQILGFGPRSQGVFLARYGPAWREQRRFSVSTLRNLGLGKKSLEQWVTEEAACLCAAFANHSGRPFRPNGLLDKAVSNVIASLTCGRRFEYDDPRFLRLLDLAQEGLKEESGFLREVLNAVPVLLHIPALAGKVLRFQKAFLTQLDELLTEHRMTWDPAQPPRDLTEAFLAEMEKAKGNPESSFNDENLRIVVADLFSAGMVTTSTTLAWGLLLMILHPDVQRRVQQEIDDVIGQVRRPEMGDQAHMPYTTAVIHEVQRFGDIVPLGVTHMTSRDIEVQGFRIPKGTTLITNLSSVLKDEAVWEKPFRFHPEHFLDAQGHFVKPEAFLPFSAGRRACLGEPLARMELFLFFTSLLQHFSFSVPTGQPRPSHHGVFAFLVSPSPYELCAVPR
Experimental: Test compound concentration-dependent response studies were performed in triplicate.

[3] = target: hERG channel (Homo sapiens (Human), UniProt Q12809); assay: hERG channel inhibition, whole cell patch clamp in HEK293 cells; type: cell-based; conditions: for inhibition at 5 min, 10 µM: human, HEK293 cells stably expressing hERG channel, pH 7.35; for IC50: Table 1.3B
Sequence of hERG channel (Q12809 whole entry): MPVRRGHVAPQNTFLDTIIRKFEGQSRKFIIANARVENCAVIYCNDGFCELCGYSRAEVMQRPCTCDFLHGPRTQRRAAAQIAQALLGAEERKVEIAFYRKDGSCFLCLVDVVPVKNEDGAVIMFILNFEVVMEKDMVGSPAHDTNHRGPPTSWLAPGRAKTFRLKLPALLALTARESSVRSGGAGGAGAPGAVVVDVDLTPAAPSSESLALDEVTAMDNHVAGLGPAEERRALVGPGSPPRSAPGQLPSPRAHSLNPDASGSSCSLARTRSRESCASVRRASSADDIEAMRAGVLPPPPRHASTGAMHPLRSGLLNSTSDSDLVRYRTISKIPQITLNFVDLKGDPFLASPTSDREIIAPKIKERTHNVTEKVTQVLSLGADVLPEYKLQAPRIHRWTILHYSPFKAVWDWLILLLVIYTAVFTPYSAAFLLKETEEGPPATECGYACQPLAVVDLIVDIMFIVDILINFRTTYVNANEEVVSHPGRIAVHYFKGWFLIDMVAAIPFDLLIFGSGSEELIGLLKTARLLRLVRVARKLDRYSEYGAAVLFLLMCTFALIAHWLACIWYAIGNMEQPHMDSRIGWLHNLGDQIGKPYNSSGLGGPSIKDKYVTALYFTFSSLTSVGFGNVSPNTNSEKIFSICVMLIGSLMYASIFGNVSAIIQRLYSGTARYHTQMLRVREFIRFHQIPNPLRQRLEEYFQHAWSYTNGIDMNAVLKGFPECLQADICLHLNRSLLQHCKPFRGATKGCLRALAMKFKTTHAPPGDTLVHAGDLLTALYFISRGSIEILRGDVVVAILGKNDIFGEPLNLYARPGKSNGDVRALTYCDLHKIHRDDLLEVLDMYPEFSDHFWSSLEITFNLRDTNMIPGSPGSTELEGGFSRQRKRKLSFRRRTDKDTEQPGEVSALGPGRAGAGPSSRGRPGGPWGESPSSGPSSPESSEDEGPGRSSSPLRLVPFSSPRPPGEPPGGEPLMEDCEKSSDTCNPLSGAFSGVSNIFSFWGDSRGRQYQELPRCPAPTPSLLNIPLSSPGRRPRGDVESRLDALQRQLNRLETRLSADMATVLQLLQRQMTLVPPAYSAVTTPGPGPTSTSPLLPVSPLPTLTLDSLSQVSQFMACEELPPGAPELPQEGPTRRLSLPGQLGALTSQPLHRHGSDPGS

[4] = target: native rat brain NR2B receptors (Rattus norvegicus (Rat), UniProt P35439+Q00960); assay: NR2B radioligand binding assay in rat brain using [3H] (E)-N1-(2-methoxybenzyl)-cinnamidine; conditions: rat brain NR2B receptors
Sequence of native rat brain NR2B receptors (Q00960 27-1482, other chains not shown): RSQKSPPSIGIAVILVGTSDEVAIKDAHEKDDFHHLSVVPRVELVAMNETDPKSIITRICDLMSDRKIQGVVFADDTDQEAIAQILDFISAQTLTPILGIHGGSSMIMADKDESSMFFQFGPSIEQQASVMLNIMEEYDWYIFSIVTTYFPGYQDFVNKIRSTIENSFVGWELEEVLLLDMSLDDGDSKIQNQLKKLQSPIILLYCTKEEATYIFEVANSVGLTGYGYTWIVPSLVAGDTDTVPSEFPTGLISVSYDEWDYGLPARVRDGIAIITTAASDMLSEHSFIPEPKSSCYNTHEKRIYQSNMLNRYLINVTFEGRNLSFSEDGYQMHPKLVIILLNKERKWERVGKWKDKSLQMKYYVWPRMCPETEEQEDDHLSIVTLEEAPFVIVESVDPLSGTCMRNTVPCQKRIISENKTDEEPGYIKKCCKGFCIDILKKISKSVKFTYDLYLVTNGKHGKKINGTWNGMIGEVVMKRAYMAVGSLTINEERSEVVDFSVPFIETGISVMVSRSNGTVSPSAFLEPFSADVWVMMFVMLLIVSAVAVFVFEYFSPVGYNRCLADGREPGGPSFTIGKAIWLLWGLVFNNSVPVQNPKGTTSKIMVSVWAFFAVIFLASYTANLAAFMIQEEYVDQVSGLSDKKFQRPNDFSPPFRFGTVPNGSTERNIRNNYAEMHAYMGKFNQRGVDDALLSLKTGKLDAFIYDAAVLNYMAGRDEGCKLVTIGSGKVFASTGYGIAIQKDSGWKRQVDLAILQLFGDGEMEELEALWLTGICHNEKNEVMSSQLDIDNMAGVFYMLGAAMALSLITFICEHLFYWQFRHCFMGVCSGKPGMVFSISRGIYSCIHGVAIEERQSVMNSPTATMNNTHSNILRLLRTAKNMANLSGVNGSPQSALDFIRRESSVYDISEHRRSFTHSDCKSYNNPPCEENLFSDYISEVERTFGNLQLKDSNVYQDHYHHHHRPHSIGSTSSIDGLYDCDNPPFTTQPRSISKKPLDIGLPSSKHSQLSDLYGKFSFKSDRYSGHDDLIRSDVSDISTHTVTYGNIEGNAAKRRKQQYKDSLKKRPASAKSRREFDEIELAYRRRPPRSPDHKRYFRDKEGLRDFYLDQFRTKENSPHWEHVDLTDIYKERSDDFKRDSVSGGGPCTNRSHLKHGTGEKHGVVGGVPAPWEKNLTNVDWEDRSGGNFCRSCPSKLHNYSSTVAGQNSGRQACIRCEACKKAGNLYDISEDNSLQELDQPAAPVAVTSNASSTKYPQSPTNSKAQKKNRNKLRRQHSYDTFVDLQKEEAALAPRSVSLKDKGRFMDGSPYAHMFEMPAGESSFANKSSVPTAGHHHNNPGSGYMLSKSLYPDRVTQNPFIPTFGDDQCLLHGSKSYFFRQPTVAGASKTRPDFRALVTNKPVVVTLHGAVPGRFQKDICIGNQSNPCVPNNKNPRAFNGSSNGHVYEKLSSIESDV
Experimental: This example describes an NR2B receptor binding assay in rat brain using [^3H] […] The binding assay method was adapted from a previously described cellular human NR1a/NR2B cloned receptor assay (Kiss et al. Neurochem. Internatl. 2005, 46:453-464) to rat brain tissue. This assay serves as a selective measure of NR2B receptor binding activity in native rat brain receptors. Briefly, the brains of male Wistar rats were homogenized (Polytron) before centrifugation at 40,000×g for 15 minutes at 4° C. After 2 washes, the final pellet was homogenized and stored at −80° C. The protein concentration was determined by Bradford assay. [^3H] […] Non-specific binding was assessed in the presence of excess (10 μM) (E)-N1-(2-nethoxybenzyl)-cinnamidine.
Test compounds were solubilized at 10 mM in DMSO. Then the dilutions were performed with a constant solvent concentration (1% DMSO) in the assay. After incubation for 4.5 hours at room temperature, the assays were filtered on GF/3 filters pretreated with 0.3% (v/v) polyethylenimine (PEI) with a Packard system. The experiment was performed in duplicate (n=2).

[5] = tested on: wild type mice (male NMRI); assay: Marble Burying Test in wild type mice; type: in vivo, mouse
Experimental: Animals. Male NMRI mice (20-30 g body weight) were obtained from Janvier Labs (Le Genest-Saint Isle, France) and allowed to acclimate to the animal facility for at least 5 days. Twelve mice were studied per treatment group.
Compound formulation. The test compounds were prepared in a vehicle of 0.5% DMSO and 4% HP-β-CD, and administered orally (PO) or IP. The test compounds or vehicle were administered 20 minutes before the behavioral test described below. Clobazam (8 mg/kg IP), administered 30 minutes before the test, was used as the positive reference compound.
Clobazam was dispersed in 0.2% hydroxypropylmethylcellulose (HPMC) in physiological saline. Dosing volume was 10 mL/kg.
Testing procedure. The Marble Burying Test was conducted as previously described by Broekkamp et al. (Eur. J. Pharmacol. 1986, 126:223-229). Mice exposed to small novel objects (marbles) will bury them in the sawdust floor covering. Anxiolytics decrease the number of marbles buried at non-sedating doses. Mice were individually placed in transparent plastic cages (33×21×18 cm) with 5 cm of sawdust on the floor and 25 marbles grouped in the center of the cage. The cage was covered with an inverted plastic cage. Each test cage, together with the marbles, was impregnated with mouse odor before-hand by leaving 10 mice in the cage for 15 minutes. These mice then played no further role in the experiment. The number of marbles covered by sawdust (⅔ or more) was counted at the end of the 30-minute test. The test was performed blind (compounds versus vehicle).
Statistical analyses. Data were analyzed by comparing test compound-treated groups with the vehicle control group using the Kruskal-Wallis test followed by post-hoc Mann-Whitney U tests. Data comparing the reference compound with the vehicle were analyzed using the Mann-Whitney U test. A p value<0.05 was considered significant.

[6] = tested on: wild type littermate mice; assay: Grooming Test in wild type littermates of Sapap3 and Shank3 complete knockout mice; type: in vivo, mouse
Experimental: (§1) Animals. The breeding conditions and genotyping methods for Sapap3 and Shank3 complete knockout mice were the same as described in Welch et al. (Nature 2007, 448(7156):894-900) and in Wang et al. (Nat. Commun. 2016, 7:11459), respectively. Homozygous knockout mice and littermate wild type mice of both genders were used at 4 to 8 weeks of age.
(§2) Compound formulation. The test compounds were dissolved in a small volume of dimethyl sulfoxide (DMSO) and diluted in an aqueous solution of 2-hydroxypropyl-beta-cyclodextrin (HP-β-CD) and administered IP. Dosing volume was 10 mL/kg. At 20 minutes after dosing, the mice were subjected to the behavioral test as described below.
(§3) Testing room and apparatus. The test room was maintained under the same conditions as the colony rooms, except the mice were housed in conventional shoe-box cages with food, water, and nesting materials. Animals were housed in the test room 48-72 hours prior to testing, in order to permit the mice to fully acclimate to the test room and conventional housing cages before testing. Tests were conducted in white polyvinyl-fluoride hard-sided foam test arenas (20×20×12 cm). The arenas were indirectly illuminated by dimmable LED light bars placed level with the arena floor and 30 cm away from the external wall of the test arena. This permitted the internal area of the arena to be evenly illuminated at approximately 40 lux. The illumination levels where the mice were housed before testing were about 80-100 lux.
(§4) Testing procedure. Mice were carefully placed into the test arenas 20 minutes after compound administration. Animals were given free exploration of the arena for 10 minutes, after which they were gently sprayed with 4 quick pumps of a water mist (total water volume approximated 1.5-1.7 mL). Mice were then allowed an additional 10 minutes to self-groom and engage in other behaviors before being removed from the arena. All tests were videotaped using cameras mounted above the testing arena and were saved to digital media format using Noldus Media Player software (Noldus Information Technologies, Leesburg, Va.). The mice were only tested once in the acute studies and were repeatedly tested in the sustained effect studies.
(§5) Quantitation of grooming bouts. Analyses of the video recordings were conducted with TopScan behavioral recognition software (Cleversys Inc, Reston, Va.). Configurations were made which scored time spent in grooming. […] These settings permitted automated scoring of grooming by TopScan that corresponded well to manual-scoring of these behaviors by a trained blinded observer using Noldus Observer XT9 (Noldus Information Technologies), with an average corrected kappa of 0.925 (range 0.807-0.983).
(§6) Statistical analyses. Data are presented as means and standard error of the means (SEMs). Analyses were conducted using SPSS 23 (IBM SPSS Statistics, Chicago, Ill.). Time spent in grooming behavior (seconds) over the 10-minute pre- and post-spray time blocks were analyzed with repeated measures analyses of variance (RMANOVA). The pre- and post-spray times were used for the within subject effects and the genotype and compound treatment condition were used as the between subject effects. In sustained effect studies, days were also used for a within subject effect. Some analyses of total groom time were performed in Prism 7.01 (GraphPad Software, La Jolla, Calif.), with one-way ANOVAs to compare genotypes on Day 1 or with RMANOVAs to compare treatment groups within the same genotype across days. Treatments with compounds were compared independently with the vehicle. All post-hoc comparisons were performed with Bonferroni corrections for multiple comparisons to avoid a Type I error. In all cases, a p<0.05 was considered significant.
The wild type littermates of the Sapap3 knockout and Shank3 complete knockout mice were retested after Day 1 compound administration to determine whether the sustained effects were unique to the knockout mice. […]

[7] = tested on: Sapap3 knockout mice; assay: Grooming Test in Sapap3 knockout mice; type: in vivo, mouse
Experimental: as §1, §2, §3, §4, §5, §6
Next, the effect of two subunit-selective NR2B antagonists administered as a single IP dose and assessed 20 minutes postdose was studied in the Sapap3 knockout mice (n=6-10 mice per treatment group). […]

[8] = mean of replicates, read-out: Arithmetic Mean Ki
[9] = Mus musculus, ip, read-out: Percent Change in marbles buried relative to vehicle
[10] = Mus musculus, po, read-out: Percent Change in marbles buried relative to vehicle

IC50 ([1]; Table 1.1B) | IC50 ([1]; Table 1.3B) | IC50 ([1]; Table 1.4B) | inhibition at 10 min, 10 µM [2] | IC50 [2] | Ki [4, 8] | Compound | inhibition at 5 min, 10 µM [3] | IC50 [3] | change in vivo at 0.3 mg/kg [5, 9] | change in vivo at 3 mg/kg [5, 9] | other results
20.5 nM | 20.5 nM | 20.5 nM | 19% | – | – | O=C(OCc1ccc(F)cc1)N1CC[C@H](CNc2nccn3cnnc23)C(F)(F)C1 [E1-1.4^B′] | 11% | – | – | – | –
– | – | – | – | 15 µM | 2.85 nM | Cc1ccc(COC(=O)N2CC[C@H](CNc3cccnn3)C(F)(F)C2)cc1 [E1-24.2^B′, (R)-4-methylbenzyl 3,3-difluoro-4-((pyridazin-3-ylamino)methyl)piperidine-1-carboxylate] | – | 25 µM | – | – | Ki ([4]; individual replicate, read-out: Ki, result from each assay): 2.1 nM and 3.6 nM
– | – | – | – | > 50 µM | – | O=C(OCc1ccc(F)cc1)N1CC[C@H](CNc2ncccn2)C(F)(F)C1 [E1-22.4^B′, (R)-4-fluorobenzyl 3,3-difluoro-4-((pyrimidin-2-ylamino)methyl)piperidine-1-carboxylate methanesulfonate] | – | 39 µM | -6% | -99% | change in vivo at 1.78 mg/kg ([5]; Mus musculus, ip, 1.78 mg/kg, read-out: Percent Change in marbles buried relative to vehicle): -97%
– | – | – | – | 41 µM | – | O=C(OCc1ccc(C(F)F)cc1)N1CC[C@H](CNc2ncccn2)C(F)(F)C1 [E1-22.6^B′, (R)-4-(difluoromethyl)benzyl 3,3-difluoro-4-((pyrimidin-2-ylamino)methyl)piperidine-1-carboxylate mesylate] | – | 7.3 µM | -95% | -98% | effect on grooming on Day 3 ([6]; 1 mg/kg IP on Day 1, wild type littermates): did not show an effect; effect on grooming on Day 1 ([6]; 1 mg/kg IP, wild type littermates): significant reduction in grooming; effect on grooming on Day 5 ([6]; 3 mg/kg IP on Day 1, wild type littermates): significantly increased grooming; effect on grooming on Day 3 ([6]; 3 mg/kg IP on Day 1, wild type littermates, mesylate): significantly reduced grooming; acute effect on grooming on Day 1 ([6]; wild type littermates of Sapap3 knockout mice, dose-dependent): significantly reduced grooming; significantly reduced grooming through Day ([7]; first dose 3 mg/kg IP on Day 1): 15 days; acute effect on excessive self-grooming ([7]; single IP dose, 20 min postdose, Day 1): significantly reduced grooming; significantly reduced grooming through Day ([7]; single dose 1 mg/kg IP on Day 1): 15 days; change in vivo at 0.1 mg/kg [5, 9]: -30%; change in vivo at 10 mg/kg [5, 9]: -100%
14.8 nM | 14.8 nM | 14.8 nM | 37% | – | 8.67 nM | O=C(OCc1ccc(Cl)cc1)N1CC[C@H](CNc2nccn3cnnc23)C(F)(F)C1 [E1-1.3^B′] | 19% | – | – | – | –
13.9 nM | 13.9 nM | 13.9 nM | 97% | – | – | Cc1ccc(COC(=O)N2CC[C@H](CNc3cnccn3)C(F)(F)C2)cc1 [E1-21.2^B′] | 27% | – | – | – | –
– | – | – | – | 9.7 µM | 6.5 nM | Cc1ccc(COC(=O)N2CC[C@H](CNc3ccc(C)cn3)C(F)(F)C2)cc1 [E1-23.26^B′, (R)-4-methylbenzyl 3,3-difluoro-4-(((5-methylpyridin-2-yl)amino)methyl)piperidine-1-carboxylate] | – | – | – | – | –
– | – | – | – | 29 µM | – | CCc1ccc(COC(=O)N2CC[C@H](CNc3ncccn3)C(F)(F)C2)cc1 [E1-22.5^B′, (R)-4-ethylbenzyl 3,3-difluoro-4-((pyrimidin-2-ylamino)methyl)piperidine-1-carboxylate methanesulfonate] | – | 9.2 µM | 8% | -100% | change in vivo at 0.1 mg/kg [5, 9]: -9%; change in vivo at 10 mg/kg [5, 9]: -100%; change in vivo at 0.3 mg/kg [5, 10]: -11%; change in vivo at 1 mg/kg ([5]; Mus musculus, po, 1 mg/kg, read-out: Percent Change in marbles buried relative to vehicle): -15%; change in vivo at 3 mg/kg [5, 10]: -76%; efficacy in the Marble Burying Test ([5]; lowest test concentration of 1 mg/kg, IP): fully efficacious
